For experiment [1], the target named is T1, human ETB receptor (Homo sapiens, UniProt P24530).
T1 construct: expressed in transfected cells; host or cells: CHO-K1 cells, pRc-CMW (so in the source) expression vector, electroporation; membranes used
T1 sequence (P24530 27-442): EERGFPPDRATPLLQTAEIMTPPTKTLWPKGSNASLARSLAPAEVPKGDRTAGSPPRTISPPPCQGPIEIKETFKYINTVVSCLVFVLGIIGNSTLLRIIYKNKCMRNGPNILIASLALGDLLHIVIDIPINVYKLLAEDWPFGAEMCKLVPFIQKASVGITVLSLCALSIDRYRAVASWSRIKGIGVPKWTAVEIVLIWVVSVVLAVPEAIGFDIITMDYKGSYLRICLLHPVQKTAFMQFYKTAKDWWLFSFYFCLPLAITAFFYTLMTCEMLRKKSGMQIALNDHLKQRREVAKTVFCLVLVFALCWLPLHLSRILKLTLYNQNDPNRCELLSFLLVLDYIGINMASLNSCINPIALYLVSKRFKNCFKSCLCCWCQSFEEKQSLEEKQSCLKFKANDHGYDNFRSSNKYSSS
The experiment in a line: ERBA-B: [125I]-ET-1 binding, recombinant human ETB receptor expressed in CHO-K1 cells. The settings on record: human cloned ETB receptor, read-out: ERBA-B IC50, human cloned receptor data.

Experiment [2] deals with T2, ETA (Oryctolagus cuniculus, UniProt A5A8K3).
T2 sequence (A5A8K3 21-427): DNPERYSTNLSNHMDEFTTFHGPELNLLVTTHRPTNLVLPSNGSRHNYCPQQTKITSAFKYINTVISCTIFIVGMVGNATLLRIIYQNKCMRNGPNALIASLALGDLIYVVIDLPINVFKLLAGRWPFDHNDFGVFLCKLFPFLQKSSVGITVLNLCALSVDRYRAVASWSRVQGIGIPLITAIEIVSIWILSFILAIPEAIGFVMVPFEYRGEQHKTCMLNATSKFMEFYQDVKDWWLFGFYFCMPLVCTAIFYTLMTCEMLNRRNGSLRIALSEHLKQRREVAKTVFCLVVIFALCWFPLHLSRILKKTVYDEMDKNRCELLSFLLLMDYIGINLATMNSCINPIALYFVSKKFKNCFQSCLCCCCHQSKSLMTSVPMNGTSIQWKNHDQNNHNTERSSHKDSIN
The settings on record: ERBA-A IC50, [125I]-ET-1, rabbit renal artery vascular smooth muscle cells.

Our source for the IC50 values is patent US5691373A, “Nonpeptide endothelin antagonists I” (Warner-Lambert Company, priority 1995, dated 1997).

As to `COc1ccc(C2(O)OC(=O)C(c3ccc4c(c3)OCO4)=C2Cc2ccc(OCc3ccccc3)c(OC)c2)cc1` (stereo not drawn) [Example 309, 3-Benzo[1,3]dioxol-5-yl-4-(4-benzyloxy-3-methoxybenzyl)-5-hydroxy-5-(4-methoxy-phenyl)-5H-furan-2-one], the IC50 is 860 nM in experiment [1] and 18 nM in experiment [2].
The corresponding values for `COc1ccc(C2(O)OC(=O)C(c3ccc4c(c3)OCO4)=C2CC2=CC[C@H]3C[C@@H]2C3(C)C)cc1` (stereo partly drawn) [Example 310, 3-Benzo[1,3]dioxol-5-yl-4-(6,6-dimethyl-bicyclo[3.1.1]-hept-2-en-2-ylmethyl)-5-hydroxy-5-(4-methoxy-phenyl)-5H-furan-2-one] are 8800 nM and 540 nM.
The corresponding values for `COc1ccc(C2(O)OC(=O)C(c3ccc4c(c3)OCO4)=C2Cc2ccccc2Oc2ccccc2)cc1` (stereo not drawn) [Example 313, 3-Benzo[1,3]dioxol-5-yl-5-hydroxy-5-(4-methoxy-phenyl)-4-(2-phenoxy-benzyl) -5H-furan-2-one] are greater than 2500 nM and 99 nM.
For `COc1ccc(C2(O)OC(=O)C(c3ccc4c(c3)OCO4)=C2CC2CCCC2)cc1` (stereo not drawn) [Example 314, 3-Benzo[1,3]dioxol-5-yl-4-cyclopentylmethyl-5-hydroxy-5-(4-methoxy-phenyl)-5H-furan-2-one], the results for the IC50 in experiment [1] and in experiment [2] were 640 nM and 8.4 nM, respectively.
The corresponding values for `CCC(CC)CC1=C(c2ccc3c(c2)OCO3)C(=O)OC1(O)c1ccc(OC)cc1` (stereo not drawn) [Example 315, 3-Benzo[1,3]dioxol-5-yl-4-(2-ethyl-butyl)-5-hydroxy-5-(4-methoxy-phenyl)-5H -furan-2-one] are 11800 nM and 40 nM.
The corresponding values for `COc1ccc(C2(O)OC(=O)C(c3ccc4c(c3)OCO4)=C2CC2CC=CCC2)cc1` (stereo not drawn) [Example 316, 3-Benzo[1,3]dioxol-5-yl-4-cyclohex-3-enylmethyl-5-hydroxy-5-(4-methoxy-phenyl)-5H-furan-2-one] are 690 nM and 8.1 nM.
Regarding `COc1ccc(C2(O)OC(=O)C(c3ccc4c(c3)OCO4)=C2CC(c2ccccc2)C2CCCC2)cc1` (stereo not drawn) [Example 319, 3-Benzo[1,3]dioxol-5-yl-4-(2-cyclopentyl-2-phenylethyl)-5-hydroxy-5-(4methoxy-phenyl)-5H-furan-2-one], the IC50 is 180 nM in experiment [1] and 5.6 nM in experiment [2].
Take `COc1ccc(C2(O)OC(=O)C(c3ccc4c(c3)OCO4)=C2CCC2CCCCC2)cc1` (stereo not drawn) [Example 322, 3-Benzo-[1,3]dioxol-5-yl-4-(2-cyclohexyl-ethyl)-5-hydroxy-5-(4-methoxy-phenyl)-5H-furan-2-one]: the IC50 in experiment [1] was determined as 4000 nM; in experiment [2], 3300 nM.
The corresponding values for `COc1ccc(C2(O)OC(=O)C(c3ccc4c(c3)OCO4)=C2Cc2ccccc2Oc2ccc3c(c2)OCO3)cc1` (stereo not drawn) [Example 324, 3-Benzo[1,3]dioxol-5-yl-4-[2-(benzo[1,3]dioxol-5-yloxy)-benzyl]-5-hydroxy-5-(4-methoxy-phenyl)-5H-furan-2-one] are 5300 nM and 8.4 nM.
The corresponding values for `C=CCOc1ccc(OC)cc1C1=C(Cc2ccccc2)C(O)(c2ccc(OC)cc2)OC1=O` (stereo not drawn) [Example 337, 3-(2-Allyloxy-5-methoxy-phenyl)-4-benzyl-5-hydroxy-5-(4-methoxy-phenyl)-5H-furan-2-one] are greater than 25000 nM and 2500 nM.
The corresponding values for `COc1ccc(C2(O)OC(=O)C(c3ccc4c(c3)OCO4)=C2CC2CCCCCC2)cc1` (stereo not drawn) [Example 339, 3-Benzo[1,3]dioxol-5-yl-4-cycloheptylmethyl-5-hydroxy-5-(4-methoxy-phenyl)-5H-furan-2-one] are 1300 nM and 240 nM.
In the case of `CCCCCC1=C(c2ccc3c(c2)OCO3)C(=O)OC1(O)c1ccc(OC)cc1` (stereo not drawn) [Example 340, 3-Benzo[1,3]dioxol-5-yl-5-hydroxy-5-(4-methoxy-phenyl)-4-pentyl-5H-furan-2-one], the IC50 in experiment [1] came to 630 nM; in experiment [2] it was 69 nM.
